From patent EP1208096B1, “SUBSTITUTED PYRIDAZINES AND FUSED PYRIDAZINES WITH ANGIOGENESIS INHIBITING ACTIVITY” (Bayer Corporation, priority 1999, dated 2001)

System: SK-MEL2 human tumor cells that were transfected with a plasmid containing the murine VEGF gene
Assay: Matrigel Angiogenesis Model (hemoglobin content of Matrigel plugs)
Assay type: in vivo, Mice
Details: 30, 100 and 300 mg/kg po sid; 12 days post-implantation; vs. vehicle control animals
Protocol: Preparation of Matrigel Plugs and in vivo Phase: Matrigel® (Collaborative Biomedical Products, Bedford, MA) is a basement membrane extract from a murine tumor composed primarily of laminin, collagen IV and heparan sulfate proteoglycan. It is provided as a sterile liquid at 4° C, but rapidly forms a solid gel at 37° C.
Liquid Matrigel at 4° C was mixed with SK-MEL2 human tumor cells that were transfected with a plasmid containing the murine VEGF gene with a selectable marker. Tumor cells were grown in vitro under selection and cells were mixed with cold liquid Matrigel at a ratio of 2 X 10^6 per 0.5 ml. […]
Optical densities were determined spectrophotometrically at 600 nm in a 96-well plate reader, SpectraMax 250 Microplate Spectrophotometer System (Molecular Devices, Sunnyvale, CA). Background Lysis Buffer readings were subtracted from all wells.
Total sample hemoglobin content was calculated according to the following equation: Total Hemoglobin = (Sample Lysate Volume) x (Hemoglobin Concentration) [formula]
The average Total Hemoglobin of Matrigel samples without cells was subtracted from each Total Hemoglobin Matrigel sample with cells. Percent inhibition was calculated according to the following equation: % Inhibition =((Average Total Hemoglobin Drug-Treated Tumor Lysates) X 100)/((Average Total Hemoglobin Non-Treated Tumor Lysates)) [formula]

CNC(=O)c1cc(Cc2nnc(Nc3ccc(Cl)cc3)c3ccccc23)ccn1 [Example 1, 4-[4-(4-Chlorophenylamino)phthalazin-1-ylmethyl]pyridin-2-yl carboxylic acid methylamide]
inhibition of total hemoglobin content of the Matrigel samples: > 50%
